In ChEMBL document CHEMBL4842348 (J Med Chem, 2021):

Experiments:
[1] = Clearance in CD1 mouse at 1 mg/kg, iv and 2 mg/kg, po; assay type: ADME, organism-based; settings: in vivo
[2] = Bioavailability in CD1 mouse at 1 mg/kg, iv and 2 mg/kg, po; assay type: ADME, organism-based; settings: in vivo
[3] = Terminal half life in CD1 mouse at 1 mg/kg, iv; assay type: ADME, organism-based; settings: in vivo, read-out: beta t1/2 (converted)
[4] = Cmax in CD1 mouse at 2 mg/kg, po; assay type: ADME, organism-based; set-up: route oral, dose 2 mg/kg; settings: in vivo
[5] = Plasma clearance in WH rat at 1 mg/kg, iv; assay type: ADME, organism-based
[6] = Volume of distribution at steady state in WH rat at 1 mg/kg, iv; assay type: ADME, organism-based; settings: in vivo, read-out: Vdss
[7] = MRT in WH rat at 1 mg/kg, iv; assay type: ADME, organism-based; settings: in vivo
[8] = Cmax in WH rat at 2 mg/kg, po; assay type: ADME, organism-based; set-up: route oral, dose 2 mg/kg; settings: in vivo
[9] = Tmax in WH rat at 2 mg/kg, po; assay type: ADME, organism-based; settings: in vivo
[10] = AUC (0 to infinitive) in WH rat at 2 mg/kg, po; assay type: ADME, organism-based; set-up: route oral, time infinity, dose 2 mg/kg; settings: in vivo
[11] = Oral bioavailability in WH rat at 2 mg/kg; assay type: ADME, organism-based; settings: in vivo
[12] = Plasma clearance in Beagle dog at 0.5 mg/kg, iv; assay type: ADME, organism-based, Canis lupus familiaris
[13] = Volume of distribution at steady state in Beagle dog at 0.5 mg/kg, iv; assay type: ADME, organism-based, Canis lupus familiaris; settings: in vivo, read-out: Vdss
[14] = Cmax in Beagle dog at 2 mg/kg, po; assay type: ADME, organism-based, Canis lupus familiaris; set-up: route oral, dose 2 mg/kg; settings: in vivo
[15] = AUC (0 to infinitive) in Beagle dog at 2 mg/kg, po; assay type: ADME, organism-based, Canis lupus familiaris; set-up: route oral, time infinity, dose 2 mg/kg; settings: in vivo
[16] = Oral bioavailability in Beagle dog at 2 mg/kg; assay type: ADME, organism-based, Canis lupus familiaris; settings: in vivo
[17] = Plasma clearance in rhesus monkey at 0.5 mg/kg, iv; assay type: ADME, organism-based, Macaca mulatta
[18] = Volume of distribution at steady state in rhesus monkey at 0.5 mg/kg, iv; assay type: ADME, organism-based, Macaca mulatta; settings: in vivo, read-out: Vdss
[19] = Cmax in rhesus monkey at 2 mg/kg, po; assay type: ADME, organism-based, Macaca mulatta; set-up: route oral, dose 2 mg/kg; settings: in vivo
[20] = Tmax in rhesus monkey at 2 mg/kg, po; assay type: ADME, organism-based, Macaca mulatta; settings: in vivo
[21] = Half life in NFR-transgenic mouse plasma at 10 mg/kg, po single dose; assay type: ADME, organism-based
[22] = Half life in lean wild type mouse liver at 10 mg/kg, po qd treated for 40 days; assay type: ADME, organism-based; settings: time 40 day
[23] = Half life in lean wild type mouse adipose tissue at 10 mg/kg, po qd treated for 40 days; assay type: ADME, organism-based; settings: time 40 day
[24] = Half life in DIO wild type mouse plasma at 10 mg/kg, po qd treated for 40 days; assay type: ADME, organism-based; settings: time 40 day
[25] = Half life in DIO wild type mouse liver at 10 mg/kg, po qd treated for 40 days; assay type: ADME, organism-based; settings: time 40 day
[26] = Half life in lean NFR-transgenic mouse plasma at 10 mg/kg, po qd treated for 40 days; assay type: ADME, organism-based; settings: time 40 day
[27] = Half life in lean NFR-transgenic mouse liver at 10 mg/kg, po qd treated for 40 days; assay type: ADME, organism-based; settings: time 40 day
[28] = Terminal half life in DIO NFR-transgenic mouse plasma at 10 mg/kg, po once daily for 14 days; assay type: ADME, organism-based; settings: time 14 day, read-out: beta t1/2 (converted)
[29] = Terminal half life in DIO NFR-transgenic mouse liver at 10 mg/kg, po once daily for 14 days; assay type: ADME, organism-based; settings: time 14 day, read-out: beta t1/2 (converted)
[30] = Terminal half life in DIO NFR-transgenic mouse adipose tissue at 10 mg/kg, po once daily for 14 days; assay type: ADME, organism-based; settings: time 14 day, read-out: beta t1/2 (converted)
[31] = Normalized AUC (0 to 72 hrs) in fasted dog at 1 mg/kg, po in 0.5% methocel; assay type: ADME, organism-based, Canis lupus familiaris; settings: in vivo
[32] = Normalized AUC (0 to 72 hrs) in high fat diet fed dog at 1 mg/kg, po in 0.5% methocel; assay type: ADME, organism-based, Canis lupus familiaris; settings: in vivo
[33] = Normalized AUC (0 to 72 hrs) in high fat diet fed dog at 1 mg/kg, po in Imwitor/Tween; assay type: ADME, organism-based, Canis lupus familiaris; settings: in vivo
[34] = Cmax in fasted dog at 1 mg/kg, po in 0.5% methocel; assay type: ADME, organism-based, Canis lupus familiaris; set-up: route oral, dose 1 mg/kg; settings: in vivo
[35] = Cmax in high fat diet fed dog at 1 mg/kg, po in 0.5% methocel; assay type: ADME, organism-based, Canis lupus familiaris; set-up: route oral, dose 1 mg/kg; settings: in vivo
[36] = Cmax in fasted dog at 1 mg/kg, po in Imwitor/Tween; assay type: ADME, organism-based, Canis lupus familiaris; set-up: route oral, dose 1 mg/kg; settings: in vivo
[37] = Cmax in high fat diet fed dog at 1 mg/kg, po in Imwitor/Tween; assay type: ADME, organism-based, Canis lupus familiaris; set-up: route oral, dose 1 mg/kg; settings: in vivo
[38] = Oral bioavailability in fasted dog at 1 mg/kg in 0.5% methocel; assay type: ADME, organism-based, Canis lupus familiaris; settings: in vivo
[39] = Oral bioavailability in high fat diet fed dog at 1 mg/kg in 0.5% methocel; assay type: ADME, organism-based, Canis lupus familiaris; settings: in vivo
[40] = Oral bioavailability in fasted dog at 1 mg/kg in Imwitor/Tween; assay type: ADME, organism-based, Canis lupus familiaris; settings: in vivo
[41] = Oral bioavailability in high fat diet fed dog at 1 mg/kg in Imwitor/Tween; assay type: ADME, organism-based, Canis lupus familiaris; settings: in vivo
[42] = Drug recovery in bile duct cannulated single po dosed WH rat assessed as recovered total bile radioactivity; assay type: ADME, organism-based; settings: in vivo
[43] = Drug recovery in bile duct cannulated single po dosed WH rat assessed as recovered parent compound in bile relative to total recovery; assay type: ADME, organism-based; settings: in vivo
[44] = Drug recovery in bile duct cannulated single po dosed WH rat assessed as recovered glucuronide conjugate in bile relative to total recovery; assay type: ADME, organism-based; settings: in vivo
[45] = Drug recovery in bile duct cannulated single po dosed WH rat assessed as recovered taurine conjugate in bile relative to total recovery; assay type: ADME, organism-based; settings: in vivo
[46] = Drug recovery in bile duct cannulated single po dosed WH rat assessed as recovered total feces radioactivity; assay type: ADME, organism-based; settings: in vivo
[47] = Drug recovery in bile duct cannulated single iv dosed WH rat assessed as recovered total bile radioactivity; assay type: ADME, organism-based; settings: in vivo
[48] = Drug recovery in bile duct cannulated single iv dosed WH rat assessed as recovered total feces radioactivity; assay type: ADME, organism-based; settings: in vivo
[49] = Drug recovery in bile duct cannulated single iv dosed WH rat assessed as recovered parent compound in feces relative to total recovery; assay type: ADME, organism-based; settings: in vivo
[50] = Drug recovery in bile duct cannulated single iv dosed WH rat assessed as recovered parent compound in plasma measure at 2 hrs relative to total recovery; assay type: ADME, organism-based; settings: in vivo
[51] = Drug recovery in bile duct cannulated single iv dosed WH rat assessed as recovered glucuronide conjugate in plasma measure at 2 hrs relative to total recovery; assay type: ADME, organism-based; settings: in vivo
[52] = Drug recovery in bile duct cannulated single po dosed rhesus monkey assessed as recovered total bile radioactivity; assay type: ADME, organism-based, Macaca mulatta; settings: in vivo
[53] = Drug recovery in bile duct cannulated single po dosed rhesus monkey assessed as recovered taurine conjugate in bile relative to total recovery; assay type: ADME, organism-based, Macaca mulatta; settings: in vivo
[54] = Drug recovery in bile duct cannulated single po dosed rhesus monkey assessed as recovered total feces radioactivity; assay type: ADME, organism-based, Macaca mulatta; settings: in vivo
[55] = Drug recovery in bile duct cannulated single po dosed rhesus monkey assessed as recovered parent compound in feces relative to total recovery; assay type: ADME, organism-based, Macaca mulatta; settings: in vivo
[56] = Drug recovery in bile duct cannulated single po dosed rhesus monkey assessed as recovered glucuronide conjugate in feces relative to total recovery; assay type: ADME, organism-based, Macaca mulatta; settings: in vivo
[57] = Drug recovery in bile duct cannulated single po dosed rhesus monkey assessed as recovered total urine radioactivity; assay type: ADME, organism-based, Macaca mulatta; settings: in vivo
[58] = Drug recovery in bile duct cannulated single po dosed rhesus monkey assessed as recovered parent compound in urine relative to total recovery; assay type: ADME, organism-based, Macaca mulatta; settings: in vivo
[59] = Drug recovery in bile duct cannulated single po dosed rhesus monkey assessed as recovered parent compound in plasma measured at 2 hrs relative to total recovery; assay type: ADME, organism-based, Macaca mulatta; settings: in vivo
[60] = Drug recovery in bile duct cannulated single po dosed rhesus monkey assessed as recovered parent compound in plasma measured at 24 hrs relative to total recovery; assay type: ADME, organism-based, Macaca mulatta; settings: in vivo

With `COc1ncc(-c2ccc(C(=O)O)cc2C)cc1-c1ccc(C(F)(F)F)cc1[C@@H]1CC[C@H]2[C@@H](c3cc(C(F)(F)F)cc(C(F)(F)F)c3)OC(=O)N12` the clearance [1] was 0.156 L/h/kg, the bioavailability [2] was 43% and the half-life [3] was 4.4 h. It also gave a Cmax [4] of 0.43 µM, a clearance [5] of 0.186 L/h/kg and a Vd [6] of 2.4 L/kg. The MRT [7] was 13 h, the Cmax [8] was 0.4 µM and the Tmax [9] was 4 h. For the same compound, the AUC(0-inf) [10] was 9.7 µM·h, the bioavailability [11] was 65% and the clearance [12] was 0.0312 L/h/kg. It also gave a Vd [13] of 0.54 L/kg, a Cmax [14] of 0.69 µM and an AUC(0-inf) [15] of 13 µM·h. It also gave a bioavailability [16] of 14%, a clearance [17] of 0.0234 L/h/kg and a Vd [18] of 1.3 L/kg. The Cmax [19] was 0.22 µM, the Tmax [20] was 6.7 h and the half-life [21] was 12 h. The half-life [22] was 1.5 h, the half-life [23] was 0.8 h and the half-life [24] was 67.2 h. It also gave a half-life [25] of 76.8 h, a half-life [26] of 288 h and a half-life [27] of 69.6 h. The half-life at […] [28] was 3.8 h, the half-life at […] [29] was 5.5 h and the half-life at […] [30] was 2.8 h. For the same compound, the AUC/dose [31] was 6.5 µM·kg·h/mg, the AUC/dose [32] was 4.2 µM·kg·h/mg and the AUC/dose [33] was 22 µM·kg·h/mg. It also gave a Cmax [34] of 0.5 µM, a Cmax [35] of 0.3 µM and a Cmax [36] of 1.5 µM. For the same compound, the Cmax [37] was 1.3 µM, the bioavailability [38] was 14% and the bioavailability [39] was 9%. For the same compound, the bioavailability [40] was 53%, the bioavailability [41] was 48% and the Drug recovery [42] was over 99%. For the same compound, the Drug recovery [43] was under 2%, the Drug recovery [44] was over 98% and the Drug recovery [45] was 0%. For the same compound, the Drug recovery [46] was 46%, the Drug recovery [47] was 67% and the Drug recovery [48] was 15%. For the same compound, the Drug recovery [49] was over 98%, the Drug recovery [50] was over 96% and the Drug recovery [51] was under 4%. For the same compound, the Drug recovery [52] was over 99%, the Drug recovery [53] was 3% and the Drug recovery [54] was 60%. For the same compound, the Drug recovery [55] was 95%, the Drug recovery [56] was 5% and the Drug recovery [57] was 7%. The Drug recovery [58] was over 99%, the Drug recovery [59] was over 99% and the Drug recovery [60] was over 99%.
